Measurements as given in article PMC5654414, “In vitro and in vivo comparative and competitive activity-based protein profiling of GH29 α-L-fucosidases” (Chemical Science, 2015).

What was measured:
[1] = target: T1, recombinant human FUCA1 (human lysosomal α-L-fucosidase) (Homo sapiens, UniProt P04066); assay: In vitro inhibition of FUCA1 activity, 4-methylumbelliferyl-α-L-fucopyranoside substrate, lysates of COS-7 cells over-expressing enzyme; format: biochemical
T1 construct: expressed in transfected cells; host or cells: COS-7
T1 sequence (P04066 32-466): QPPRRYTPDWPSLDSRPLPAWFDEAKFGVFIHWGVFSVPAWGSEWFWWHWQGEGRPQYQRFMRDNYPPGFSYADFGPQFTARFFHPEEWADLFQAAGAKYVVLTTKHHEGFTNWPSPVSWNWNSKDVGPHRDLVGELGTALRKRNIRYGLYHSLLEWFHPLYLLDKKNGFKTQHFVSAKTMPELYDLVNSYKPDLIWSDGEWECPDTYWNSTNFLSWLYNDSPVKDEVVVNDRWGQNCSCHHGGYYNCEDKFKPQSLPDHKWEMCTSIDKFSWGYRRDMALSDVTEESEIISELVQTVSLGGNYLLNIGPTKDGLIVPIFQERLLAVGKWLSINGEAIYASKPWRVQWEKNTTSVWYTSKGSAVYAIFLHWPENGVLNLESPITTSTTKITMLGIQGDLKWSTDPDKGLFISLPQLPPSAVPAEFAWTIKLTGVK
Description: Having the cyclophellitol aziridine inhibitors and probes in hand, we determined their inhibitory potency towards the human lysosomal α-L-fucosidase, FUCA1.
The enzymatic activity of α-L-fucosidase was assayed at 37 °C by incubating with 1.5 mM 4-methylumbelliferyl-α-L-fucopyranoside as substrate in 150 mM McIlvaine buffer, pH 4.5, supplemented with 0.1% (w/v) BSA. […] The reaction was quenched by adding excess NaOH–glycine (pH 10.6), after which fluorescence was measured with a fluorimeter LS55 (Perkin Elmer) using λEX 366 nm and λEM 445 nm.

FUCA1 [2] = target: T2, FUCA1 (Homo sapiens, UniProt P04066); assay: In vitro ABP labeling of FUCA1 overexpressed in COS cells; format: binding
T2 sequence (P04066 32-466): T1 sequence (P04066 32-466)
Description: Subsequently, we exposed lysates of spleens from a healthy human individual and a patient suffering from Gaucher disease to ABP 1.
The coding sequences of H. sapiens FUCA1 (NCBI reference sequence XM_005245821.1, using forward primer 5′-[…]-3′ and reverse primer 5′-[…]-3′), and of H. sapiens FUCA2 (NCBI reference sequence NM_032020.4, using forward primer 5′-[…] […]-3′ and reverse primer 5′-[…] […]-3′) were amplified via PCR and cloned into pDNOR-221 and thereafter sub-cloned in pcDNA™-DEST40 vector using the Gateway system (Invitrogen). Correctness of all constructs was verified by sequencing. Confluent COS-7 cells were transfected with pcDNA3.1 empty vector (Mock) or the vector with described insert in conjunction with FuGENE (Roche).
All pre-incubations and ABP labeling-reactions occurred for 30 min at 37 °C. Total lysates (50 μg), medium (500 μg) or purified protein preparations (5 μg) were labeled with 1 μM JJB256 1 or JJB244 2, dissolved in 150 mM McIlvaine buffer, pH 4.5, incubating for 30 min at 37 °C. […] Wet slab-gels were scanned on fluorescence using a Typhoon Variable Mode Imager (Amersham Biosciences) using λEX 488 nm and λEM 520 nm (band pass filter 40 nm) for green fluorescent JJB256 1 and λEX 532 nm and λEM 610 nM (band pass filter 30 nm) for red fluorescent JJB244 2 and JJB75.

FUCA1 [3] = target: T2, FUCA1; assay: ABP pulldown from Gaucher spleen lysate and LC-MS/MS identification; format: binding; design: lysates of spleens from a healthy human individual and a patient suffering from Gaucher disease; from tissue; host or cells: human spleen (normal subject and type 1 Gaucher patient); conditions: 10 μM pre-incubation followed by 10 μM ABP 3
Description: To further determine the specificity of the developed ABPs, we have analyzed the ABP-labeled proteins in a complex tissue homogenate. For this purpose, we incubated Gaucher spleen lysate with biotinylated ABP 3 or with DMSO only (control) or competitive ABP 3-labeling by first incubating with fluorescent ABP 1. Glycosylated proteins were then enriched via ConA, followed by affinity purification with streptavidin coated paramagnetic beads. The identity of biotinylated and ABP 3-labeled proteins was determined by on-bead digestion with trypsin, peptide analysis by LC-MS/MS and matching against the human UniProt database, using the Mascot search engine as previously reported.[14] […]
Gaucher spleen lysate (1 g) was cut with a sterile scalpel, mixed with 4 mL 25 mM potassium phosphate buffer (pH 6.5, supplemented with 0.1% (v/v) Triton X-100 and protease inhibitor cocktail (Roche)) and sonicated three times for 10 seconds at 100% strength and kept on ice. […] Lysate was then centrifuged for 10 min at 10 000 g, supernatant collected carefully, protein concentration determined and […] total protein was then incubated with either 0.1% (v/v) DMSO, ABP 1 or ABP 3, or firstly with 10 μM ABP 1 followed by 10 μM of ABP 3, each step taking 30 min at 37 °C, in a total volume of 1 mL McIlvaine buffer, pH 4.5. […]

Question: What does the source list for `CC1=CC(C)=[N+]2C1=C(CCCCc1cn(CCCCCCCC(=O)N3[C@@H]4[C@@H](C)[C@@H](O)[C@@H](O)[C@H](O)[C@@H]43)nn1)c1c(C)cc(C)n1[B-]2(F)F` [compound 1]?
Answer: IC50 [1]: 6.9 ± 0.8 nM; labeling of enzyme (FUCA1 [2]): labeled; blocking of ABP 3 binding by pre-incubation (FUCA1 [3]): completely blocked
